Data on 1 compound can be found in ChEMBL document CHEMBL1155091, “Structure, antimicrobial activity and DNA-binding properties of the cobalt(II)-sparfloxacin complex” (2008).

In general, MIC refers to the smallest concentration in the dilution series that meets the test's criterion for growth inhibition.

In brackets after ≈: the same amount, converted by molar mass.

Assay [1] deals with DNA. Description: Binding affinity to calf thymus DNA. Type of assay: nucleic-acid assay. The following applies: Bos taurus.
Assay [2] has as its system Escherichia coli. Description: Antimicrobial activity against Escherichia coli. Type of assay: functional.
Assay [3] deals with Pseudomonas aeruginosa. Nature of the assay: Antimicrobial activity against Pseudomonas aeruginosa. It counts as functional.
Assay [4] has as its system Staphylococcus aureus. Nature of the assay: Antimicrobial activity against Staphylococcus aureus. It counts as functional.

In assay [1], `C[C@@H]1CN(c2c(F)c(N)c3c(=O)c(C(=O)O)cn(C4CC4)c3c2F)C[C@H](C)N1` [SPARFLOXACIN] displayed a Kb of 17100 M⁻¹. Moreover, the MIC in assay [2] came to 8 µg/mL (≈ 20.4 µM); in assay [3] it was 0.25 µg/mL (≈ 0.637 µM); in assay [4], 0.5 µg/mL (≈ 1.27 µM).
